Test: in vitro
Details: human, hela cells, % viability

| Compound | viability at 28.5 h, 10 µM | viability at 28.5 h, 10 µM (bulk resorufin, single well) |
| --- | --- | --- |
| CC1SC2(C(=O)Nc3ccccc32)N(c2ccc(Oc3ccccc3)cc2)C1=O (stereo not shown) [CBK103750] | 92.5% | – |
| Cc1ccc(N2C(=O)c3ccccc3NC23C(=O)N(C)c2ccc(Br)cc23)cc1 (stereo not shown) [CBK103752] | 85.2% | – |
| CC(C)C(=O)NC(C)c1nc(-c2ccncc2)n[nH]1 (stereo not shown) [CBK104021] | 113% | – |
| O=C(Nc1cccnc1)c1ncoc1-c1ccc(F)cc1 [CBK104357] | 106% | – |
| CCCc1[nH]n(CC(=O)OCC)c(=O)c1Cc1c(Cl)cccc1Cl [CBK104764] | 94.4% | – |
| CC(C)(C)OC(=O)N1CCC2(CC1)OCc1cc(-c3cccc(OCC(=O)N4CCOCC4)c3)ccc1O2 [CBK105254] | – | 96.8% |
| Brc1ccc2c(c1)COC1(CN3CCC1CC3)O2 (stereo not shown) [CBK105268] | 107% | – |
| CC(=O)NCCSc1nccnc1NC(C)C [CBK105289] | 92.8% | – |
| CC(=O)NCCSc1cncc(NC(C)C)n1 [CBK105291] | 84.9% | – |
| CC(C)Nc1cncc(SCCN(C)C)n1 [CBK105292] | 90.6% | – |
| CC(=O)NCCSc1ncccc1C(F)(F)F [CBK105296] | 101% | – |
| CC(=O)NCCSc1nccc(C(F)(F)F)n1 [CBK105301] | 102% | – |
| FC(F)(F)c1ccnc(SCCc2ccncc2)n1 [CBK105302] | 95.3% | – |
| CC(=O)NCCSc1nc2ccccc2nc1C(F)(F)F [CBK105303] | 89.6% | – |
| Cc1[nH]nc(O)c1Cc1ccccc1F [CBK105306] | 97.1% | – |
| COc1ccc(-c2ccc3c(c2)COC2(CCCNC2)O3)c(OC)c1 (stereo not shown) [CBK105316] | 103% | – |
| Cc1onc(-c2ccccc2)c1NC(=O)Nc1cc2ccccc2c(Br)n1 [CBK105489] | 96.5% | – |
| O=C(Nc1ccc2c(c1)OCO2)Nc1c(Br)cnc2ncccc12 [CBK105596] | 93.4% | – |
| CC1(OCc2ccccc2)SC(NC2CCCCCC2)=NC1=O (stereo not shown) [CBK105606] | 82.8% | – |

| Compound | viability at 28.5 h, 10 µM | viability at 28.5 h, 10 µM (bulk resorufin, single well) |
| --- | --- | --- |
| CC(=O)NCCSc1nccnc1N1CCCC1 [CBK105619] | 91.7% | – |
| CCCCNC(=O)Nc1ncc(-c2ccc(C#N)cc2)nc1-c1ccc(C(=O)N2CCOCC2)cc1 [CBK105766] | 91.1% | – |
| Cc1ccccc1NC(=O)Nc1cccc(F)c1 [CBK105831] | 88.3% | – |
| Cc1ccccc1NC(=O)NCc1ccccc1F [CBK105832] | 97.4% | – |
| COc1ccc(Cn2nc(-c3nc(C)no3)c3ccccc32)cc1 [CBK105834] | 90.7% | – |
| CCNC(=O)Nc1nn(Cc2ccc(OC)cc2)c2ccccc12 [CBK105837] | 94.6% | – |
| COCCNc1nc(-c2ccccc2)ccc1C(=O)Nc1cccc(OC)c1 [CBK105886] | 98.1% | – |
| COCCNc1nc(-c2cc(C(C)C)ccc2OC)ccc1C(=O)Nc1cccc(OC)c1 [CBK105904] | 96.9% | – |
| COCCNc1nc(-c2ccccc2)ccc1C(=O)N(C)CCN(C)C [CBK105913] | 99.3% | – |
| COCCNc1nc(-c2ccc(C(C)=O)s2)ccc1C(=O)N(C)CCN(C)C [CBK105914] | 116% | – |
| COCCNc1nc(-c2cccc(N(C)C)c2)ccc1C(=O)NCCc1ccccn1 [CBK105938] | 90.7% | – |
| COCCNc1nc(-c2ccc(N3CCOCC3)cc2)ccc1C(=O)N1CCN(C)CC1 [CBK105943] | 111% | – |
| COCCNc1nc(-c2ccsc2)ccc1C(=O)N1CCN(C)CC1 [CBK105948] | 112% | – |
| COCCNc1nc(-c2ccccc2OC)ccc1C(=O)N1CCN(C)CC1 [CBK105950] | 88.7% | – |
| COCCNc1nc(-c2ccccc2OC)ccc1C(=O)NCCNC(C)=O [CBK105974] | 100% | – |
| CNC(=O)c1ccc(-c2cc(OC)c(OC)c(OC)c2)nc1NCCOC [CBK105997] | 94.1% | – |
| COc1ccc(-c2ccc(C(=O)N(C)C)c(N3CCN(C(=O)c4ccco4)CC3)n2)cc1 [CBK106020] | 86.3% | – |
| COCCNC(=O)c1ccc(-c2ccccc2)nc1N(C)C [CBK106049] | 99.8% | – |
